Laboratory results taken from BindingDB's records for doi:10.1021/acs.jmedchem.9b01226 (Purdue University, 2020).
pIC50: −log10 of the molar value.

Assays:
[1] = biological target: T1, Proteasome subunit beta type-8 (Homo sapiens, UniProt P28062); test: Inhibition of immunoproteasome subunit LMP7 in human OPM1 cells assessed as reduction in cell viability incubated for 48 hrs by MTT assay
T1 sequence (P28062 whole entry): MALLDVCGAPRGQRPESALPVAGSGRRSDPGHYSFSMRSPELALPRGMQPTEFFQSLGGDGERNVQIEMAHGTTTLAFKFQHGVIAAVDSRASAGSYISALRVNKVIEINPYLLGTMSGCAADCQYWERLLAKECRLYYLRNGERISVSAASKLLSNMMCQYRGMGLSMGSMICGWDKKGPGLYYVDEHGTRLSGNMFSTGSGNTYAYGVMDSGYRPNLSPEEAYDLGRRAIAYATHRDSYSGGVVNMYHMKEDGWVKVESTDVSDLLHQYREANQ

[2] = biological target: T1, Proteasome subunit beta type-8; test: Inhibition of immunoproteasome subunit LMP7 in human MM.1S cells assessed as reduction in cell viability incubated for 48 hrs by MTT assay
[3] = biological target: T1, Proteasome subunit beta type-8; test: Inhibition of immunoproteasome subunit LMP7 in human RPMI8226 cells assessed as reduction in cell viability incubated for 48 hrs by MTT assay
[4] = biological target: T1, Proteasome subunit beta type-8; test: Inhibition of immunoproteasome subunit LMP7 in human LR5 cells assessed as reduction in cell viability incubated for 48 hrs by MTT assay
[5] = biological target: T1, Proteasome subunit beta type-8; test: Inhibition of immunoproteasome subunit LMP7 in human DOX40 cells assessed as reduction in cell viability incubated for 48 hrs by MTT assay
[6] = biological target: T1, Proteasome subunit beta type-8; test: Inhibition of immunoproteasome subunit LMP7 in human INA60 cells assessed as reduction in cell viability incubated for 48 hrs by MTT assay
[7] = biological target: T1, Proteasome subunit beta type-8; test: Inhibition of immunoproteasome subunit LMP7 in human MM.1R cells assessed as reduction in cell viability incubated for 48 hrs by MTT assay
[8] = biological target: T1, Proteasome subunit beta type-8; test: Inhibition of immunoproteasome subunit LMP7 in human KMS12PE cells assessed as reduction in cell viability incubated for 48 hrs by MTT assay
[9] = biological target: T1, Proteasome subunit beta type-8; test: Inhibition of immunoproteasome subunit […] in human OPM1 cells assessed as reduction in cell viability incubated for 48 hrs by MTT assay

Measured: pIC50

CC1=C(C(=O)N[C@H](C)C(=O)N[C@@H](Cc2c[nH]c3ccccc23)C(=O)N[C@@H](Cc2ccccc2)C(=O)[C@@]2(C)CO2)Cc2ccccc21
5.52: all assays above
